From ChEMBL document CHEMBL5233223, “Dammarane-type leads panaxadiol and protopanaxadiol for drug discovery: Biological activity and structural modification” (Eur J Med Chem, 2020)

Tests used:
Format in all cases: functional, cell-based
A549 = experiment: Antiproliferative activity against human A549 cells assessed as cell growth inhibition
HL-60 = experiment: Antiproliferative activity against human HL-60 cells assessed as cell growth inhibition
HepG2 = experiment: Antiproliferative activity against human HepG2 cells assessed as cell growth inhibition

IC50 (A549): 29.7 µM | IC50 (HL-60): 11.6 µM | IC50 (HepG2): 9.2 µM
SMILES: CCCCCCC/C=C\CCCCCCCC(=O)O[C@H]1CC[C@@]2(C)C(CC[C@]3(C)C2C[C@@H](O)C2C([C@@](C)(O)CCC=C(C)C)CC[C@]23C)C1(C)C (stereo partly drawn)
